Test results reported in patent EP0415776A2, “Indolobenzoquinoline derivatives, their preparation and their use as anti-arrhythmic drugs” (Sankyo Company Limited, priority 1989, dated 1991).
Counter-ions that a name gives are not always drawn.

Tested on: arrhythmias caused by myocardial ischemia in dogs
Test: arrhythmias caused by myocardial ischemia in dogs (glass bead injected into left coronary artery)
Format: in vivo, Male Beagles
Experimental: Male Beagles weighing 8 - 12 kg were anesthetized with sodium pentobarbital (30 mg/kg i.v.). The animal was placed in a supine position, and the left carotid artery was isolated from the surrounding tissue. A metal cannula was then introduced from the left carotid artery and its tip was placed at the coronary orifice. A glass bead having a diameter of 1.7 mm was injected through the metal cannula into the left coronary artery. The glass bead injection produced a ST segment elevation, which was followed by ventricular arrhythmias due to myocardial infarction.
The dog was used in a conscious state for 24 hours after myocardial ischemia developed, when the arrythmic ratio exceeded 70%. The arrhythmic ratio was calculated by dividing the number of arrhythmias by the total heart beats in one minute.
Figures 1 and 2 of the accompanying drawings show the course of the arrhythmias with time following a single intravenous administration of the compound of Example 1 and its racemate, respectively.

## N[C@@H]1Cc2c3n(c4cccc(O)c24)C(=O)C[C@H]2CCC[C@@H]1[C@@H]32 [Example 1, (3aR,4R,12aR,12bS) 4-Amino-2,3,3a,4,5,12,12a,12b-octahydro-6-hydroxyindolo[3,2,1,-ij]benz[de]quinolin-11-(1 H)-one hydrochloride sesquihydrate]
Example 1 at 2.5 mg/kg i.v. versus racemate at 5.0 mg/kg i.v.
  suppressing arrhythmias, compared with racemate: almost comparable with its racemate at 5.0 mg/kg i.v.
Single i.v. administration, dogs, inferred from 2.5 mg/kg vs 5.0 mg/kg
  potency in anti-arrhythmic action relative to racemate: about twice
Single intravenous administration, conscious dog 24 hours after myocardial ischemia developed, course with time, Figures 1 and 2
  number of arrhythmias per minute: decreased the number of arrhythmias per minute
